Experimental data taken from patent US12221494B2, “Short synthetic peptides and their uses for treating retinal degenerative diseases and/or tissue injuries” (MacKay Memorial Hospital, priority 2019, dated 2025).

Tests used:
[1] = system: Sprague-Dawley rats, retinal ischemia/reperfusion (I/R) injury; test: Retinal vasculature analysis (acellular capillaries) 14 days after I/R injury; assay type: in vivo; conditions: rat
Experimental: Experimental procedures were approved by the Mackay Memorial Hospital Review Board (Taiwan, R.O.C.). All surgeries were performed under aseptic conditions. Adult 10-week-old male Sprague-Dawley rats (initial body weight=312±11 g) were anesthetized by an intraperitoneal injection of xylazine (10 mg/kg). Peptide was dissolved in 0.85% normal saline to 1 mM and delivered by the subconjunctival injection of 100 μL peptide through a 31-Gneedle with a micro-syringe before the induction of I/R. Normal saline was as a vehicle control. Rat I/R was performed after peptide or vehicle injection for 4 h. Pupils were dilated with 0.5% tropicamide and 0.5% phenylephrine. Body temperature was maintained at 37° C. using a heating blanket After dilation of the pupil, the anterior chamber of the right eye was cannulated with a 27-gauge needle connected to a physiological saline reservoir. The intraocular pressure (IOP) was raised to 110 mmHg by keeping the reservoir at 150 cm above the eye, and retinal ischemia was confirmed by observing whitening of the iris and the loss of the red reflex of the retina. After 90 min of ischemia, the cannulating needle was withdrawn and the IOP was returned to normal pressure, resulting in recovery of the blood supply from the retinal artery and reperfusion injury induced. The reperfusion was evident by the return of the red reflex. Corneal analgesia was achieved using 1 or 2 drops of 0.4% oxybuprocaine hydrochloride, and Ofloxacin ophthalmic gel (0.3%) was applied topically to the eye before and after the procedure. Only the right eye was used in all experiments. A sham procedure was performed at left eye served as an intra-animal control.
Rats (n=6 in each group) were euthanized using an overdose of pentobarbital at 14 days after I/R injury, the eyeballs were fixed with 4% PFA for overnight at 4° C. […] Ten sections per eye were averaged and the mean of six eyes was recorded as the representative value for each group.

IL-1β mRNA = test: Hyperosmotic stress-induced IL-1β gene expression in rabbit corneal epithelial cells (qPCR); assay type: cell-based; conditions: 20 μM peptide 6 h, then hyperosmotic medium (463 mOsM) 3 h, solvent 4.5-fold
Experimental: Total RNA was extracted from cells using TRIzol (Invitrogen). Synthesis of cDNA was performed with 1 μg of total RNA at 50° C. for 50 min using oligo(dT) primers and reverse transcriptase (Superscript III; Invitrogen). Briefly, quantification of cDNA was performed in the LightCycler (Roche, Mannheim, Germany) using the DNA Master SYBR Green I kit (Roche) with the following cycling conditions: initial denaturation at 95° C. for 10 min, followed by 40 cycles at 95° C. for 10 s, 60° C. for 10 s, and 72° C. for 10 s and a 5-min terminal incubation at 72° C. The data were calculated with AACt. The expression was then normalized against the expression of glyceraldehyde-3-phosphate dehydrogenase (GAPDH). The PCR primers were mouse Survivin sense, 5′-[…]-3′ (SEQ ID NO: 27), anti-sense, 5′-[…]-3′ (SEQ ID NO: 28) (accession number: NM_001012273.1; PCR product: 136 bp); mouse GAPDH sense, 5′-[…]-3′ (SEQ ID NO: 29), anti-sense, 5′-[…]-3′ (SEQ ID NO: 30) (NM_001289726.1; 149 bp). For analysis rabbit inflammatory gene expression, The PCR primers were rabbit TNF-αsense, 5′-[…]-3′ (SEQ ID NO: 31), anti-sense, 5′-[…]-3′ (SEQ ID NO: 32) (accession number: NM 001082263.1); rabbit IL-1βsense, 5′-[…]-3′(SEQ ID NO: 33), anti-sense, 5′-[…]-3′ (SEQ ID NO: 34) (NM 001082201.1); rabbit GAPDH sense, 5′-[…]-3′ (SEQ ID NO: 35), anti-sense, 5′-[…]-3′ (SEQ ID NO: 36) (accession number:NM 001082253.1). The cycle threshold (Ct) values of the PCR product and a GAPDH (Glyceraldehyde 3-phosphate dehydrogenase) control mRNA were used to calculate relative quantities of mRNA.
Limbal stem epithelial cells (LSEC) were isolated from 6-month-old New Zealand white rabbits and continuously cultivated for 14 days byDMEM/F-12basalmedium based cell-suspension culture to achieve corneal-liked epithelial cell differentiation as previously described (Ho et al., Stem Cells. 2013; 31:1775). […] After 3 h, quantitative real-time PCR was used to estimate HOP-induced Tumor necrosis factor (TNF)-α and nterleukin-1 beta (IL-1β) expressions. […]

## NH2-(D-Ser)-Leu-Gly-Ala-Glu-Gln-COOH (SLGAEQ; HELM PEPTIDE1{[dS].L.G.A.E.Q}$$$$V2.0; SMILES CC(C)C[C@H](NC(=O)[C@H](N)CO)C(=O)NCC(=O)N[C@@H](C)C(=O)N[C@@H](CCC(=O)O)C(=O)N[C@@H](CCC(N)=O)C(=O)O) [6-mer dS]
[1]; 14 days after I/R injury
  number of degenerate capillaries, in words: The number of degenerate capillaries was reduced
[1]; 14 days post-ischemia, Vehicle + I/R 7.2 ± 0.9
  Number of acellilar capillaries: 2.3 ± 0.7 /mm^2
[1]; sham testing in contralateral eye
  cytotoxic effect on retinal vasculature: had no cytotoxic effect on retinal vasculature
IL-1β mRNA
  mRNA expression of IL-1β, in words: apparently repressed the mRNA expression of TNF-α and IL-1β
